The source of these data is patent US8859768B2, “Heteroaryls and uses thereof” (Millennium Pharmaceuticals, Inc., priority 2010, dated 2014).

T1 sequence (Q8NEB9 whole entry): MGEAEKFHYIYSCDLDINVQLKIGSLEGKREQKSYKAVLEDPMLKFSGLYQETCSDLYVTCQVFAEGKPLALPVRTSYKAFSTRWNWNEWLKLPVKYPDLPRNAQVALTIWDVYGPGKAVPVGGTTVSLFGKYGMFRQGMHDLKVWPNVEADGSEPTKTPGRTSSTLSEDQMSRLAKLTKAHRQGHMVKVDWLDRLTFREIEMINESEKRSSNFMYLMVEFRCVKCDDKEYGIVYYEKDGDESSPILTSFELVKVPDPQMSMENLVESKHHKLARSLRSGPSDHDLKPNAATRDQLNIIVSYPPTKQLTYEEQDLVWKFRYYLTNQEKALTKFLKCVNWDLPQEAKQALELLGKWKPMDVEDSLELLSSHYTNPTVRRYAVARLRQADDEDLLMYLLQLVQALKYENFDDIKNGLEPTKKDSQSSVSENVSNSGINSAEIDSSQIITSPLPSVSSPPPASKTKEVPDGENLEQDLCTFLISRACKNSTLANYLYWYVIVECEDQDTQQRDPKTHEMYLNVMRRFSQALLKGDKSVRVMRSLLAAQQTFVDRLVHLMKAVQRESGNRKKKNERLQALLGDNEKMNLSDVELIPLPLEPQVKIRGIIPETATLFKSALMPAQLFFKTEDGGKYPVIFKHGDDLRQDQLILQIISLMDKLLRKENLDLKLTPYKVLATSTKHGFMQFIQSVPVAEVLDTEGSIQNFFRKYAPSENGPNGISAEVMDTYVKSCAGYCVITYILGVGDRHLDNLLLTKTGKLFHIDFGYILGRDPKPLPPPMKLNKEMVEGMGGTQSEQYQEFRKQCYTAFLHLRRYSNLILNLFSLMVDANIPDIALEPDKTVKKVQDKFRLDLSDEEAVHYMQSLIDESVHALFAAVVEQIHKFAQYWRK

This experiment addresses T1, Human VPS34 (Homo sapiens, UniProt Q8NEB9).
T1 construct: GST (N); host or cells: SF9 insect cells (baculovirus)
As to the kind of experiment: Human VPS34 Enzyme Assay (Adapta TR-FRET). The format is biochemical. To be noted: compound at 1.111 μM; read-out: Average VPS34 % INH @ 1.111 μM. In general terms: In TR-FRET formats the signal depends on donor and acceptor labels being close together.
Take `Cc1cnc(NC(=O)C2CC2)cc1-c1nc(C(N)=O)c(-c2ccccc2Cl)o1` [Compound I-86, 5-(2-chlorophenyl)-2-{2-[(cyclopropylcarbonyl)amino]-5-methylpyridin-4-yl}-1,3-oxazole-4-carboxamide]: the inhibition at 1.111 µM is 117%.

As to `COCC(=O)Nc1cc(-c2nc(-c3nnc[nH]3)c(-c3ccccc3Cl)o2)ccn1` [Compound I-87, N-{4-[5-(2-chlorophenyl)-4-(4H-1,2,4-triazol-3-yl)-1,3-oxazol-2-yl]pyridin-2-yl}-2-methoxyacetamide], the inhibition at 1.111 µM amounted to 109%.

For `CC(=O)Nc1cc(-c2cc(C(=O)NCc3ccco3)c(-c3ccccc3Cl)o2)c(C)cn1` [Compound I-88, 5-(2-acetamido-5-methylpyridin-4-yl)-2-(2-chlorophenyl)-N-(2-furylmethyl)-3-furamide], the inhibition at 1.111 µM is 114%.
